Experimental data taken from patent publication US11708344B2, “Flavone derivatives for the treatment and prophylaxis of hepatitis B virus disease” (Hoffmann-La Roche Inc., priority 2018, dated 2023).
Where two headings read alike, the source gives them in different places.

How the values were obtained:
[1] = tested on: HBeAg (surrogate marker for cccDNA) in HepDES19 cells; experiment: Engineered HepDES19 primary screen assay (HBeAg ELISA); assay type: cell-based, HBV
Procedure, shortened: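 HepDES19 cells were induced by Tet withdrawal for 8 days, then treated with half-log compound dilutions (1% DMSO final) for 5 days at 37 °C. HBeAg was measured by ELISA as the cccDNA surrogate, viability by CCK-8, and IC50 from a 4-parameter logistic fit.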

[2] = Human microsome stability assay; assay type: in vitro ADME; conditions: human liver microsomes, 1 μM test compound, 0.5 mg/mL microsomal protein, 37° C., pH 7.4, 0-30 minutes
Method: The human microsomal stability assay is used for early assessment of metabolic stability of a test compound in human liver microsomes.
Human liver microsomes (Cat. NO.: 452117, Corning, USA; Cat. NO.: H2610, Xenotech, USA) were preincubated with test compound for 10 minutes at 37° C. in 100 mM potassium phosphate buffer, pH 7.4. The reactions were initiated by adding NADPH regenerating system. The final incubation mixtures contained 1 μM test compound, 0.5 mg/mL liver microsomal protein, 1 mM MgCl2, 1 mM NADP, 1 unit/mL isocitric dehydrogenase and 6 mM isocitric acid in 100 mM potassium phosphate buffer, pH 7.4. After incubation times of 0, 3, 6, 9, 15 and 30 minutes at 37° C., 300 μL of cold ACN (including internal standard) was added to 100 μL incubation mixture to terminate the reaction. Following precipitation and centrifugation, the amount of compound remaining in the samples was determined by LC-MS/MS. Controls of no NADPH regenerating system at zero and 30 minutes were also prepared and analyzed.

[3] = Hepatitis B virus, HepDES19, 120 h, read-out: IC50 (HBeAg level, HepDES19 primary screen assay), HepDES19 cells, 5 days compound incubation, HBeAg ELISA

Cc1ccc(O[C@H]2C[C@@H](C(=O)O)C2)c(-c2cc(=O)c3cccc(Cl)c3o2)c1 [Example B016, Cis-3-[2-(8-chloro-4-oxo-chromen-2-yl)-4-methyl-phenoxy]cyclobutanecarboxylic acid]
IC50 [1, 3]: 3100 nM
Clearance of Human microsome [2]: 6.15 mL/min/kg

CCOc1cc(OCCO[C@H]2C[C@@H](C(=O)O)C2)c(-c2cc(=O)c3cccc(Cl)c3o2)cc1OCC [Example C088, Cis-3-[2-[2-(8-chloro-4-oxo-chromen-2-yl)-4,5-diethoxy-phenoxy]ethoxy]cyclobutanecarboxylic acid]
IC50 [1, 3]: 10300 nM
Clearance of Human microsome [2]: 6.15 mL/min/kg

COC(=O)C1CC(OCCOc2cc(Br)ccc2-c2cc(=O)c3cccc(Cl)c3o2)C1 (stereo not drawn) [Example C003a, methyl 3-[2-[5-bromo-2-(8-chloro-4-oxo-chromen-2-yl)phenoxy]ethoxy]cyclobutanecarboxylate]
IC50 [1, 3]: 400 nM
Clearance of Human microsome [2]: 6.15 mL/min/kg

CC(C)(COc1cc(Br)ccc1-c1cc(=O)c2cccc(Cl)c2o1)CO[C@H]1C[C@@H](C(=O)O)C1 [Example C110-A, cis-3-[3-[5-bromo-2-(8-chloro-4-oxo-chromen-2-yl)phenoxy]-2,2-dimethyl-propoxy]cyclobutanecarboxylic acid]
IC50 [1, 3]: 433 nM
Clearance of Human microsome [2]: 6.15 mL/min/kg

Cc1ccc(-c2cc(=O)c3cccc(Cl)c3o2)c(OCC(=O)N2CCC[C@H]2C(=O)O)c1 [Example A078, (2S)-1-[2-[2-(8-chloro-4-oxo-chromen-2-yl)-5-methyl-phenoxy]acetyl]pyrrolidine-2-carboxylic acid]
IC50 [1, 3]: 10200 nM
Clearance of Human microsome [2]: 6.15 mL/min/kg

CS(=O)(=O)NC(=O)[C@H]1C[C@@H](OCCOc2cc(C(F)(F)F)ccc2-c2cc(=O)c3cccc(Cl)c3o2)C1 [Example C121, Cis-3-[2-[2-(8-chloro-4-oxo-chromen-2-yl)-5-(trifluoromethyl)phenoxy]ethoxy]-N-methylsulfonyl-cyclobutanecarboxamide]
IC50 [1, 3]: 5890 nM
Clearance of Human microsome [2]: 8.68 mL/min/kg

O=C(COc1cc(C(F)(F)F)ccc1-c1cc(=O)c2cccc(Cl)c2o1)NCCO [Example A086, 2-[2-(8-chloro-4-oxo-chromen-2-yl)-5-(trifluoromethyl)phenoxy]-N-(2-hydroxyethyl)acetamide]
IC50 [1, 3]: 1000 nM
Clearance of Human microsome [2]: 9.68 mL/min/kg

O=c1cc(-c2ccccc2OCCO[C@H]2C[C@@H](C(=O)O)C2)oc2c(C(F)(F)F)cccc12 [Example C047-A, Cis-3-[2-[2-[4-oxo-8-(trifluoromethyl)chromen-2-yl]phenoxy]ethoxy]cyclobutanecarboxylic acid]
IC50 [1, 3]: 16600 nM
Clearance of Human microsome [2]: 6.15 mL/min/kg

O=C(O)[C@@H]1C[C@H](Oc2cc(Br)ccc2-c2cc(=O)c3cccc(Cl)c3o2)CN1C(=O)c1ccccc1 [Example B086]
IC50 [1, 3]: 4890 nM
Clearance of Human microsome [2]: 6.15 mL/min/kg

COc1cc(-c2cc(=O)c3cccc(Cl)c3o2)c(O[C@H]2C[C@H](C(=O)NS(C)(=O)=O)C2)cc1Br [Example B053-B, Trans-3-[5-bromo-2-(8-chloro-4-oxo-chromen-2-yl)-4-methoxy-phenoxy]-N-methylsulfonyl-cyclobutanecarboxamide]
IC50 [1, 3]: 912 nM
Clearance of Human microsome [2]: 6.15 mL/min/kg

N[C@@H](COc1cc(C(F)(F)F)ccc1-c1cc(=O)c2cccc(Cl)c2o1)C(=O)O [Example A095, (2S)-2-amino-3-[2-(8-chloro-4-oxo-chromen-2-yl)-5-(trifluoromethyl)phenoxy]propanoic acid]
IC50 [1, 3]: 3290 nM
Clearance of Human microsome [2]: 9.59 mL/min/kg

COc1cc(OCCCOCC(=O)O)c(-c2cc(=O)c3cccc(Cl)c3o2)cc1OC [Example C012, 2-[3-[2-(8-chloro-4-oxo-chromen-2-yl)-4,5-dimethoxy-phenoxy]propoxy]acetic acid]
IC50 [1, 3]: 5260 nM
Clearance of Human microsome [2]: 6.15 mL/min/kg

O=c1cc(-c2ccccc2OCCO[C@H]2C[C@H](C(=O)O)C2)oc2c(Br)cccc12 [Example C046-B, Trans-3-[2-[2-(8-bromo-4-oxo-chromen-2-yl)phenoxy]ethoxy]cyclobutanecarboxylic acid]
IC50 ([1]; read-out: IC50 (HBeAg level, HepDES19 primary screen assay), HepDES19 cells, 5 days compound incubation, HBeAg ELISA): 251 nM
Clearance of Human microsome [2]: 6.15 mL/min/kg

CC(C)(COc1cc(Br)ccc1-c1cc(=O)c2cccc(Cl)c2o1)CO[C@H]1C[C@H](C(=O)O)C1 [Example C110-B, trans-3-[3-[5-bromo-2-(8-chloro-4-oxo-chromen-2-yl)phenoxy]-2,2-dimethyl-propoxy]cyclobutanecarboxylic acid]
IC50 [1, 3]: 3740 nM
Clearance of Human microsome [2]: 6.15 mL/min/kg

O=C(O)C1CC(OCCOc2ccccc2-c2cc(=O)c3cccc(Br)c3o2)C1 (stereo in doubt) [Example C046-A, Cis-3-[2-[2-(8-bromo-4-oxo-chromen-2-yl)phenoxy]ethoxy]cyclobutanecarboxylic acid]
IC50 [1, 3]: 192 nM
Clearance of Human microsome [2]: 6.15 mL/min/kg

O=C(O)COCCCOc1cc(Cl)ccc1-c1cc(=O)c2cccc(Cl)c2o1 [Example C009, 2-[3-[5-chloro-2-(8-chloro-4-oxo-chromen-2-yl)phenoxy]propoxy]acetic acid]
IC50 [1, 3]: 2660 nM
Clearance of Human microsome [2]: 6.15 mL/min/kg

O=c1cc(-c2ccc(F)cc2OCCO[C@H]2C[C@H](C(=O)O)C2)oc2c(Cl)cc(F)cc12 [Example C045-B, Trans-3-[2-[2-(8-chloro-6-fluoro-4-oxo-chromen-2-yl)-5-fluoro-phenoxy]ethoxy]cyclobutanecarboxylic acid]
IC50 [1, 3]: 2880 nM
Clearance of Human microsome [2]: 9.43 mL/min/kg

O=c1cc(-c2ccc(C(F)(F)F)cc2O[C@H]2C[C@@H](C(=O)NS(=O)(=O)C3CC3)C2)oc2c(Cl)cccc12 [Example B043-A, cis-3-[2-(8-chloro-4-oxo-chromen-2-yl)-5-(trifluoromethyl)phenoxy]-N-cyclopropylsulfonyl-cyclobutanecarboxamide]
IC50 [1, 3]: 1400 nM
Clearance of Human microsome [2]: 6.15 mL/min/kg

O=C(O)[C@@H]1C[C@H](Oc2cc(C(F)(F)F)ccc2-c2cc(=O)c3cccc(Cl)c3o2)CN1S(=O)(=O)C1CC1 [Example B078, (2S,4S)-4-[2-(8-chloro-4-oxo-chromen-2-yl)-5-(trifluoromethyl)phenoxy]-1-cyclopropylsulfonyl-pyrrolidine-2-carboxylic acid]
IC50 [1, 3]: 541 nM
Clearance of Human microsome [2]: 6.15 mL/min/kg

O=c1cc(-c2cc3c(cc2OCCO[C@H]2C[C@@H](C(=O)O)C2)OCCO3)oc2c(Cl)cccc12 [Example C074, Cis-3-[2-[[7-(8-chloro-4-oxo-chromen-2-yl)-2,3-dihydro-1,4-benzodioxin-6-yl]oxy]ethoxy]cyclobutanecarboxylic acid]
IC50 [1, 3]: 7280 nM
Clearance of Human microsome [2]: 6.15 mL/min/kg

O=c1cc(-c2ccc(C(F)(F)F)cc2O[C@H]2C[C@H](C(=O)O)C2)oc2c(Cl)ccc(O)c12 [Example B038-B, Trans-3-[2-(8-chloro-5-hydroxy-4-oxo-chromen-2-yl)-5-(trifluoromethyl)phenoxy]cyclobutanecarboxylic acid]
IC50 [1, 3]: 312 nM
Clearance of Human microsome [2]: 9.59 mL/min/kg

O=C(O)CCCOc1cc(C(F)(F)F)ccc1-c1cc(=O)c2c(O)ccc(Cl)c2o1 [Example B041, 4-[2-(8-chloro-5-hydroxy-4-oxo-chromen-2-yl)-5-(trifluoromethyl)phenoxy]butanoic acid]
IC50 [1, 3]: 289 nM
Clearance of Human microsome [2]: 6.15 mL/min/kg

O=C(O)CCOc1cc(OC(F)(F)F)ccc1-c1cc(=O)c2ccc(C(F)(F)F)c(Cl)c2o1 [Example A042, 3-[2-[8-chloro-4-oxo-7-(trifluoromethyl)chromen-2-yl]-5-(trifluoromethoxy)phenoxy]propanoic acid]
IC50 [1, 3]: 17800 nM
Clearance of Human microsome [2]: 6.15 mL/min/kg

COc1ccc(-c2cc(=O)c3cccc(Cl)c3o2)c(OCCO[C@H]2C[C@@H](C(=O)O)C2)c1 [Example C039-A, Cis-3-[2-[2-(8-chloro-4-oxo-chromen-2-yl)-5-methoxy-phenoxy]ethoxy]cyclobutanecarboxylic acid]
IC50 [1, 3]: 8910 nM
Clearance of Human microsome [2]: 6.15 mL/min/kg

O=c1cc(-c2cccc(F)c2OCCO[C@H]2C[C@H](C(=O)O)C2)oc2c(Cl)cccc12 [Example C037-B, Trans-3-[2-[2-(8-chloro-4-oxo-chromen-2-yl)-6-fluoro-phenoxy]ethoxy]cyclobutanecarboxylic acid]
IC50 [1, 3]: 531 nM
Clearance of Human microsome [2]: 6.15 mL/min/kg

COc1c(-c2ccc(Br)cc2OCCO[C@H]2C[C@@H](C(=O)O)C2)oc2c(Cl)cccc2c1=O [Example C101, Cis-3-[2-[5-bromo-2-(8-chloro-3-methoxy-4-oxo-chromen-2-yl)phenoxy]ethoxy]cyclobutanecarboxylic acid]
IC50 [1, 3]: 2380 nM
Clearance of Human microsome [2]: 6.15 mL/min/kg

COc1cc(OCC(=O)O)c(-c2cc(=O)c3cccc(Cl)c3o2)cc1OC [Example A050, 2-[2-(8-chloro-4-oxo-chromen-2-yl)-4,5-dimethoxy-phenoxy]acetic acid]
IC50 [1, 3]: 11800 nM
Clearance of Human microsome [2]: 6.15 mL/min/kg
